This is an account of results in patent US10179789B2, “Methylenedioxybenzo [I] phenanthridine derivatives used to treat cancer” (Rutgers, The State University of New Jersey, priority 2009, dated 2019).

The melting point is the temperature, or range, at which the solid turns liquid.

Where two headings read alike, the source gives them in different places.

In one series the target is T1, human topoisomerase I (Homo sapiens, UniProt P11387).
T1 construct: unnamed fusion partner (recombinant fusion protein, T7 expression system); made in house; host or cells: Escherichia coli
T1 sequence (P11387 1-765): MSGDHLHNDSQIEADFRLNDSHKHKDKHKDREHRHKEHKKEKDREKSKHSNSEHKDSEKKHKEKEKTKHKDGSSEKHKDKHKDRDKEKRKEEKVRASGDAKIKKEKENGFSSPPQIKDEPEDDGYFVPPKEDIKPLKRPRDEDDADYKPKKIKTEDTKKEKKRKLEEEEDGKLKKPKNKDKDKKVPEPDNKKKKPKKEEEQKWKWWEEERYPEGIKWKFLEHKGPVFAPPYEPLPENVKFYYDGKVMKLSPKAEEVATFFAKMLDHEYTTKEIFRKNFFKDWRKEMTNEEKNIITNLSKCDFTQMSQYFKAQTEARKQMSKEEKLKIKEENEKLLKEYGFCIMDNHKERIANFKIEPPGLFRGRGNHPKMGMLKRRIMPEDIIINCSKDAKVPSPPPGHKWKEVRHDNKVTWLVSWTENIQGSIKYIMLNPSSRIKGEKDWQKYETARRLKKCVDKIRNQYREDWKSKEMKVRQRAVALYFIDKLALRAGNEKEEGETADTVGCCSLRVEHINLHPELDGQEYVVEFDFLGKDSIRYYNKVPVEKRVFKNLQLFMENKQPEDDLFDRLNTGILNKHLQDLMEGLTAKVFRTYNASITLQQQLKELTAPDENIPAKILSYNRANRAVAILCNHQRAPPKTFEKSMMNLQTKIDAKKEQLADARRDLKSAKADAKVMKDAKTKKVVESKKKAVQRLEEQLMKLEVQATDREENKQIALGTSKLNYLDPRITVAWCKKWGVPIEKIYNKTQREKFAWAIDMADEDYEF
Nature of the series: Test A. Topoisomerase I-mediated DNA cleavage assay. The class given is biochemical. The settings on record: Relative Effective Concentration; relative to camptothecin arbitrarily assumed as 0.2; same 10% cleavage on plasmid DNA. An excerpt: Test A. Topoisomerase I—Mediated DNA Cleavage Assay Human topoisomerase I was expressed in Escherichia coli and isolated as a recombinant fusion protein using a T7 expression system as described previously (31). Plasmid YepG was also purified by the alkali lysis method followed by phenol deproteination and CsCl/ethidium isopycnic centrifugation method as described (32). The 3′ end labeling of the plasmid was accomplished by digestion with a restriction enzyme followed by end filling with Klenow polymerase as previously described (33). The cleavage assays were performed as previously reported (34,35). The drug and the DNA in presence of topoisomerase I was incubated for 30 min at room temperature. The reactions were terminated by the addition of 5 μL of 5% SDS and 1 mg/mL […] with an additional 1 h of incubation at 37° C. […] After development of the gels, typically 24-h exposure was used to obtain autoradiograms outlining the extent of DNA fragmentation. Topoisomerase I-mediated DNA cleavage values are reported as Relative Effective Concentration (REC). […] Results for the assay for representative compounds of the invention of formula I along with comparison compounds are shown in Table 1.

For series [1], the system named is RPMI 8402 human lymphoblast cells. The series can be described thus: Test B. MTT cytotoxicity assay, RPMI8402. In kind it is cell-based. To be noted: Homo sapiens, RPMI 8402, 96 h, read-out: Cytotoxicity IC50 RPMI8402. The method, then:
(§1) Test B. Cytotoxic Assays (Cancer Cell Lines and Efflux Transporter Cell Lines)
(§2) The cytotoxicity was determined using the MTT-microtiter plate tetrazolinium cytotoxicity assay (MTA). The human lymphoblast RPMI 8402 and its camptothecin-resistant variant cell line, CPT-K5 was provided by Dr. Toshiwo Andoh (Aichi Cancer Center Research Institute, Nagoya, Japan). (36) The P388 mouse leukemia cell line and its CPT-resistant TOP1-deficient variant P388/CPT45 (37) were obtained from Michael R. Mattern and Randal K. Johnson (GlaxoSmithKline, King of Prussia, Pa.). The KB3-1 cell line and its multidrug-resistant variant KBV-1 (38) were obtained from K. V. Chin (The Cancer Institute of New Jersey, New Brunswick, N.J.). The KBH5.0 cell line as noted previously (21) was derived from KB3-1 by stepwise selection against Hoechst 33342. The cytotoxicity assay was performed using 96-well microtiter plates. Cells were grown in suspension at 37° C. in 5% CO2 and maintained by regular passage in RPMI medium supplemented with 10% heat inactivated fetal bovine serum, L-glutamine (2 mM), penicillin (100 U/mL), and Streptomycin (0.1 mg/mL). For determination of IC50, cells were exposed continuously for FOUR days to varying concentrations of drug, and MTT assays were performed at the end of the fourth day. […] All assays were performed at least twice in six replicate wells.
(Formazan colour is commonly taken as a measure of viable cells.)

Series [2] has as its system CPT-K5 (camptothecin-resistant variant of RPMI 8402). Nature of the series: Test B. MTT cytotoxicity assay, CPT-K5. In kind it is cell-based, human. To be noted: Homo sapiens, read-out: Cytotoxicity IC50 CPT-K5. As for the experimental part: as §1, §2
Series [3] concerns P388 mouse leukemia cell line. The series can be described thus: Test B. MTT cytotoxicity assay, P388. The class given is cell-based. To be noted: Mus musculus, read-out: Cytotoxicity IC50 P388. The method, then:
as §1, §2

For series [4], the system named is P388/CPT45 (CPT-resistant TOP1-deficient variant of P388). The series can be described thus: Test B. MTT cytotoxicity assay, P388/CPT45. The class given is cell-based, mouse. The settings on record: Mus musculus, P388CPT45, 96 h, read-out: Cytotoxicity IC50 P388/CPT45. As for the experimental part:
as §1, §2

Series [5] in a line: Cytotoxicity on KB3-1 (parent cell line). To be noted: human. In kind it is cell-based. As for the experimental part: as §2
(§3) The cytotoxicity of the representative compounds of the invention were also tested on cell line KB3-1 (parent cell line), KBV-1 (a variant that overexpresses efflux transporter MDR1) and KBH5.0 (a variant that overexpresses BCRP). Differences in the relative cytotoxicity between the parent and variant cell lines may be indicative of a compound that is a substrate for an efflux transporter. […] Accordingly, compounds of the invention of formula I may be useful to treat tumors that are resistant to other anticancer agents, especially anticancer agents that are susceptible to efflux by BCRP (e.g. anthracyclines, mitoxantrone, topotecan, irinotecan, bisanthrone, doxorubicin, daunorubicin, and epirubin.

For another series, the system named is MDR1. Nature of the series: Cytotoxicity on KBV-1 (overexpresses MDR1). To be noted: human. The class given is cell-based. As for the experimental part: as §2, §3
For a further series, the system named is BCRP. Nature of the series: Cytotoxicity on KBH5.0 (overexpresses BCRP). The class given is cell-based. To be noted: human. As for the experimental part: as §2, §3

For the compound `CC[C@@]1(O)C(=O)OCc2c1cc1n(c2=O)Cc2cc3ccccc3nc2-1` [CPT, Camptothecin, reference compound], the “TOP1 Mediated DNA Cleavage (REC Value)” value at human topoisomerase I was 0.2. Moreover, the IC50 was 6 nM in [1] (RPMI8402, four days continuous exposure, MTT); above 10000 nM in [2] (96 h, CPT-K5, four days continuous exposure, MTT); 14 nM in series [3] (96 h, P388, four days continuous exposure, MTT); above 10000 nM in series [4]. Also, the IC50 at 4 days was 15 nM in [5] (KB3-1 cells (parent cell line), KB3-1 parent cell line, read-out: Cytotoxicity KB3-1); 25 nM with MDR1 (KBV-1, overexpresses MDR1, read-out: Cytotoxicity KBV-1); 26 nM in the series with BCRP (KBH5.0 cells (KB3-1 variant that overexpresses BCRP), KBH5.0, overexpresses BCRP, read-out: Cytotoxicity KBH5.0).

As to `COc1cc2c(C(=O)NCC(C)(C)N)cc3c4cc5c(cc4ncc3c2cc1OC)OCO5` [Compound 33, N-(2-Amino-2-methylpropyl)-2,3-dimethoxy-8,9-methylenedioxybenzo[i]phenanthridine-12-carboxamide], the melting point is 269 to 271 °C (dec.). On human topoisomerase I, the “TOP1 Mediated DNA Cleavage (REC Value)” value was found to be 1.1. In addition, the IC50 in [1] stood at 10 nM. The IC50 in [2] (CPT-K5, 96 h) was found to be 2200 nM. Also, in series [3] (P388, 96 h), the IC50 amounted to 20 nM. Further, the IC50 in series [4] is 760 nM. In [5], the IC50 at 4 days is 4 nM. The same compound displayed an IC50 at 4 days with MDR1 of 480 nM. The compound further registered an IC50 at 4 days in the series on BCRP of 190 nM.

`COc1cc2c(C(=O)NCCC(C)(C)N(C)C)cc3c4cc5c(cc4ncc3c2cc1OC)OCO5` [Compound 42, 2,3-Dimethoxy-N-(3-(dimethylamino)-3-methylbutyl)-8,9-methylenedioxybenzo[i]phenanthridine-12-carboxamide] gave a melting point of 228 to 230 °C. Also, the “TOP1 Mediated DNA Cleavage (REC Value)” value at human topoisomerase I is on record as 2.3. The IC50 in [1] stood at 25 nM. The IC50 in [2] (CPT-K5, 96 h) is 2070 nM. Further, the IC50 in series [3] (P388, 96 h) worked out at 90 nM. Besides, the IC50 in series [4] is 530 nM. Moreover, the IC50 at 4 days in series [5] came out at 50 nM. Also, the IC50 at 4 days with MDR1 came out at 2500 nM. For the same compound, the IC50 at 4 days with BCRP stood at 160 nM.

Consider `COc1cc2c(C(=O)NCCCC(C)(C)N(C)C)cc3c4cc5c(cc4ncc3c2cc1OC)OCO5` [Compound 43, 2,3-Dimethoxy-N-(4-(dimethylamino)-4-methylpentyl)-8,9-methylenedioxybenzo[i]phenanthridine-12-carboxamide], for which the melting point is 235 to 237 °C. The “TOP1 Mediated DNA Cleavage (REC Value)” value on human topoisomerase I is 3.4. Also, the IC50 in series [1] was found to be 160 nM. Besides, in series [2] (CPT-K5, 96 h), the IC50 stood at 3000 nM. The IC50 in series [3] (P388, 96 h) is 180 nM. Moreover, in [4], the IC50 is 400 nM. Besides, the IC50 at 4 days in series [5] stood at 250 nM. Also, the IC50 at 4 days in the series on MDR1 is 2800 nM. The compound further came in with an IC50 at 4 days in the series with BCRP of 600 nM.

Take `COc1cc2cc(C(=O)NCCC(C)(C)N(C)C)c3c4cc5c(cc4ncc3c2cc1OC)OCO5` [Compound 44, 2,3-Dimethoxy-8,9-methylenedioxybenzo[i]phenanthridine-11-carboxylic acid 3-(dimethylamino)-3-methylbutylamide]: the melting point was 233 to 235 °C. Also, the “TOP1 Mediated DNA Cleavage (REC Value)” value at human topoisomerase I is 0.4. The IC50 in series [1] is 150 nM. Further, the IC50 in series [2] (CPT-K5, 96 h) came to 5000 nM. Besides, the IC50 in series [3] (P388, 96 h) turned out to be 270 nM. Besides, the IC50 in series [4] amounted to 1270 nM. In addition, the IC50 at 4 days in series [5] was 240 nM. In addition, the IC50 at 4 days in the series with MDR1 is above 10000 nM. This compound also returned an IC50 at 4 days in the series on BCRP of 470 nM.

`COc1cc2cc(C(=O)NCCCC(C)(C)N(C)C)c3c4cc5c(cc4ncc3c2cc1OC)OCO5` [Compound 45, 2,3-Dimethoxy-8,9-methylenedioxybenzo[i]phenanthridine-11-carboxylic acid 4-(dimethylamino)-4-methylpentylamide] showed a melting point of 239 to 242 °C. On human topoisomerase I, the “TOP1 Mediated DNA Cleavage (REC Value)” value is listed as 2.5. For the same compound, in series [1], the IC50 was 280 nM. Further, in series [2] (CPT-K5, 96 h), the IC50 was 5500 nM. Besides, the IC50 in series [3] (P388, 96 h) was 280 nM. Also, the IC50 in series [4] was 3250 nM. Besides, in series [5], the IC50 at 4 days turned out to be 210 nM. This compound also returned an IC50 at 4 days in the series on MDR1 above 10000 nM. In the series with BCRP, the IC50 at 4 days came to 850 nM.

Turning to `COc1cc2c(C(=O)NCCN(C)C)cc3c4cc5c(cc4ncc3c2cc1OC)OCO5` [Compound 206, reference compound], the “TOP1 Mediated DNA Cleavage (REC Value)” value on human topoisomerase I was 0.1. Moreover, the IC50 in [1] stood at 3 nM; in [2] (CPT-K5, 96 h), 1000 nM; in series [3] (P388, 96 h), 3 nM; in series [4], 320 nM. Further, the IC50 at 4 days in series [5] came out at 5 nM; in the series on MDR1 it was 220 nM; with BCRP, 60 nM.

Take `COc1cc2cc(C(=O)NCCN(C)C)c3c4cc5c(cc4ncc3c2cc1OC)OCO5` [Compound 216, reference compound]: the “TOP1 Mediated DNA Cleavage (REC Value)” value on human topoisomerase I came to 0.2. In addition, the IC50 in series [1] came out at 35 nM; in series [2] (CPT-K5, 96 h) it was 630 nM; in series [3] (P388, 96 h) it was 15 nM; in series [4], 260 nM. In addition, the IC50 at 4 days in series [5] stood at 27 nM; with MDR1 it was 1400 nM; in the series on BCRP it was 200 nM.

As to `CC[C@@]1(O)C(=O)OCc2c1cc1n(c2=O)Cc2cc3c(CN(C)C)c(O)ccc3nc2-1` [Topotecan, topotecan, reference compound], at human topoisomerase I, the “TOP1 Mediated DNA Cleavage (REC Value)” value is reported as 1.0. The IC50 in series [1] is 21 nM; in [2] (CPT-K5, 96 h), above 10000 nM; in series [3] (P388, 96 h), 45 nM; in series [4], above 10000 nM. For the same compound, the results for the IC50 at 4 days (in series [5]; with MDR1; with BCRP) were 40 nM, 440 nM and 440 nM, respectively.
